≈ marks a conversion by molar mass, not a printed value. Marks after values point to notes of the source that are not given here.

One assay concerns the target lipase. The arrangement: method as in earlier work. The following applies: PGEO from Jordan; cited from earlier work.
For a further assay, the system named is E. coli. Also noted: method as in PMID 26221178. The following applies: cited from earlier work.
Another assay concerns S. aureus. Also noted: method as in PMID 26221178. As to conditions: cited from earlier work.
The test system of another assay is S. aureus species. The arrangement: method as in PMID 31284397. As to conditions: cited from earlier work.
Assay [1] has as its system Klebsiella pneumonia (13,883). Briefly: Broth microdilution, K. pneumoniae. In kind it is cell-based.
From the text: (§1) The microdilution method was used to assess the antimicrobial activity of the PGEO against selected bacterial and fungal strains according to the method [49].
The test system of a further assay is Proteus vulgaris (8427). Briefly: Broth microdilution, P. vulgaris. In kind it is cell-based. For orientation: Dilution methods test growth across graded concentrations, often in twofold steps.
In assay [2] the test system is Pseudomonas aeruginosa (9027). The assay can be described thus: Broth microdilution, P. aeruginosa. In kind it is cell-based.
From the text: as §1
Assay [3] deals with Staphylococcus aureus (2592). The assay can be described thus: Broth microdilution, S. aureus. In kind it is cell-based.
From the text: as §1
Assay [4] concerns Escherichia coli (25,922). Briefly: Broth microdilution, E. coli. In kind it is cell-based.
From the text: as §1
In assay [5] the test system is methicillin-resistant S. aureus (MRSA). Briefly: Broth microdilution, MRSA. In kind it is cell-based. The following applies: Staphylococcus aureus, clinical strain.
From the text: as §1
Assay [6] has as its system Candida albicans (ATCC 90028). Briefly: Broth microdilution, C. albicans. In kind it is cell-based. As to conditions: ATCC90028.
From the text: as §1
The subject of the next assay is Hep3B. Briefly: cells. In kind it is cell-based. As to conditions: Homo sapiens, 24 h, MTS. How it is done:
Human cervical (HeLa), breast (MCF-7), and liver (Hep3B) cancer cell lines were cultured in RPMI-1640 medium (Sigma-Norwich, Norfolk, UK). Then each kind of the tested cells was treated with 10% fetal bovine serum mixed with 1% penicillin/streptomycin antibiotics (BI, Ghaziabad, UP, India), and 1% L-glutamine (Sigma-Norwich, Norfolk, UK). The cancer cells were cultured at 37 °C in a humidified atmosphere with 5% CO2 and then planted in a 96-well plate at 2.6 × 10^4 cells/well. After 2 days, the EO with different concentrations (10, 30, 60, 120, and 500 µg/mL) was applied to the cells for 24 h. According to the manufacturer’s guidelines, cell viability was estimated by the CellTilter 96® Aqueous One Solution Cell Proliferation (MTS) method. In the end, 100 μL of media and 20 μL of MTS solution were added to each well, and the well plates were incubated at 37 °C for 2 h. The absorbance was measured at 490 nm.

Assay [7] in a line: DPPH free radical scavenging activity. As to conditions: anti-DPPH radical activity, 30 min, 517 nm. How it is done: Spectrophotometry at 517 nm was used to measure the absorbance, which was then compared with the control. The DPPH suppressant effect was calculated using the formula below: […]
(In general: Loss of DPPH colour is used to gauge radical scavenging.)

From the text for Proteus vulgaris (8427): as §1

As to `CCCCCCCCCCC[C@@H](C[C@@H]1OC(=O)[C@H]1CCCCCC)OC(=O)[C@H](CC(C)C)NC=O` [Orlistat], the “anti-lipase IC50” value on lipase is on record as 0.114 ± 0.0 µg/mL.

Regarding `CC(C)=CCCC(C)CCO` (stereo not drawn) [citronellol], in the assay with E. coli, the “MIC E. coli” value was 300 µg/mL (≈ 1920 µM). Moreover, the “MIC S. aureus” value is 400 µg/mL (≈ 2560 µM) with S. aureus and 30 µg/mL (≈ 192 µM) in the assay with S. aureus species.

For orientation: MIC means the least concentration at which growth counts as inhibited. A low value points to inhibition by little substance. In the case of `CC1(C)S[C@@H]2[C@H](NC(=O)[C@H](N)c3ccccc3)C(=O)N2[C@H]1C(=O)O` [Ampicillin], the minimal inhibitory concentration (MIC) amounted to 12.5 ± 0.05 µg/mL (≈ 35.8 µM) in [1]; 3.25 ± 0.21 µg/mL (≈ 9.3 µM) in the assay on Proteus vulgaris (8427); 100 ± 1.01 µg/mL (≈ 286 µM) in [2]; 6.25 ± 0.2 µg/mL (≈ 17.9 µM) in assay [3]; 3.12 ± 0.56 µg/mL (≈ 8.93 µM) in [4]; 32 ± 0.64 µg/mL (≈ 91.6 µM) in assay [5].

Take `OC(Cn1cncn1)(Cn1cncn1)c1ccc(F)cc1F` [Fluconazole]: the MIC in [6] worked out at 3.12 ± 0.01 µg/mL (≈ 10.2 µM).

As a reminder, the IC50 is the concentration needed to halve the response being measured. For `COc1cccc2c1C(=O)c1c(O)c3c(c(O)c1C2=O)C[C@@](O)(C(=O)CO)C[C@@H]3O[C@H]1C[C@H](N)[C@H](O)[C@H](C)O1` [Doxorubicin], it took 1.21 ± 1 µg/mL (≈ 2.23 µM) to reach half-maximal inhibition in the assay on Hep3B (IC50).

Regarding `Cc1c(C)c2c(c(C)c1O)CCC(C)(C(=O)O)O2` (stereo not drawn) [Trolox], the “IC50 against DPPH” value in [7] was 1.88 ± 0.45 ^a µg/mL.

Take `O=C(O)c1cn(C2CC2)c2cc(N3CCNCC3)c(F)cc2c1=O` [Ciprofloxacin]: the minimal inhibitory concentration (MIC) (in [1]; in the assay with Proteus vulgaris (8427)) was 0.06 ± 0.001 µg/mL (≈ 0.181 µM) throughout.

Source of the values: PMC9457828, “Chemical Markers and Pharmacological Characters of Pelargonium graveolens Essential Oil from Palestine” (Molecules, 2022).
